Here are results for 19 compounds from patent US12577234B2, “Antagonists of the muscarinic acetylcholine receptor M4” (Vanderbilt University, priority 2017, dated 2026).

Some results are limits rather than exact numbers.

This assay concerns the target T1, human mAChR M4 (Homo sapiens, UniProt P08173).
T1 construct: expressed in transfected cells; host or cells: CHO-K1 (ATCC), stably co-expressing chimeric G protein Gqi5
T1 sequence (P08173 1-479): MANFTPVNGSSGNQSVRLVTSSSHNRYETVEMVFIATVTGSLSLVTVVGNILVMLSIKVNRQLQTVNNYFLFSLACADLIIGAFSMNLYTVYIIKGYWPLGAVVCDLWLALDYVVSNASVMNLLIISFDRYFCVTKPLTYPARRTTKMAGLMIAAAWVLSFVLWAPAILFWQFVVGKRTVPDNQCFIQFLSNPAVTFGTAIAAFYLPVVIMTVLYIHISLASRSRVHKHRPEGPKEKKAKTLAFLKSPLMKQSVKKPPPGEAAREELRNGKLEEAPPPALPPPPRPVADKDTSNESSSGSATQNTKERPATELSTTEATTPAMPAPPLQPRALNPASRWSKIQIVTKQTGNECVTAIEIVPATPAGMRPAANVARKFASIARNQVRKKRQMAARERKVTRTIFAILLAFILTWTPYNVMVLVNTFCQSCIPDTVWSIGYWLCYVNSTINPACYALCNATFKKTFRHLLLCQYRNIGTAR
The assay is described as follows: mAChR M4 cell-based functional assay (calcium mobilization, EC80 acetylcholine), human M4. The conditions noted are these: for Emin: human M4, % ACh maximum at 30 μM. How it is done: Human or rat M4 cDNA, along with the chimeric G protein Gqi5, were transfected into Chinese hamster ovary (CHO-K1) cells purchased from the American Type Culture Collection using Lipofectamine2000. M4/Gqi5/CHO cells were grown in Ham's F-12 medium containing 10% heat-inactivated fetal bovine serum (FBS), 20 mM HEPES, 500 μg/mL G418 sulfate, and 200 μg/mL Hygromycin B.
For high throughput measurement of agonist-evoked increases in intracellular calcium, CHO-K1 cells stably expressing muscarinic receptors were plated in growth medium lacking G418 and hygromycin at 15,000 cells/20 μL/well in Greiner 384-well black-walled, tissue culture (TC)-treated, clear-bottom plates (VWR). Cells were incubated overnight at 37° C. and 5% CO2. […] Compound master plates were formatted in a 10 point concentration-response curve (CRC) format (1:3 dilutions) in 100% DMSO with a starting concentration of 10 or 1 mM using a BRAVO liquid handler (Agilent). Test compound CRCs were then transferred to daughter plates (240 nL) using the Echo acoustic plate reformatter (Labcyte, Sunnyvale, CA) and then diluted into assay buffer (40 μL) to a 2× stock using a Thermo Fisher Combi (Thermo Fisher Scientific, Waltham, MA).
Calcium flux was measured using the Functional Drug Screening System (FDSS) 6000 or 7000 (Hamamatsu Corporation, Tokyo, Japan) as an increase in the fluorescent static ratio. Compounds were applied to cells (20 μL, 2×) using the automated system of the FDSS at 2 seconds into the protocol and the data were collected at 1 Hz. […] Agonist activity was analyzed as a concentration-dependent increase in calcium mobilization upon compound addition. Positive allosteric modulator activity was analyzed as a concentration-dependent increase in the EC20 acetylcholine response. Antagonist activity was analyzed as a concentration-dependent decrease in the EC80 acetylcholine response; for the purposes of the tables herein, an IC50 (inhibitory concentration 50) was calculated as a concentration-dependent decrease of the response elicited by an EC80 concentration of acetylcholine. Concentration-response curves were generated using a four-parameter logistical equation in XLFit curve fitting software (IDBS, Bridgewater, NJ) for Excel (Microsoft, Redmond, WA) or Prism (GraphPad Software, Inc., San Diego, CA) or the Dotmatics software platform (Dotmatics, Bishop's Stortford, UK).
On the technique in general: Calcium flux is commonly read through the fluorescence of an indicator in the cells.

[1] abbreviates: Table 9, M4/Gqi5/CHO-K1 cells, decrease of EC80 acetylcholine response.
[2] abbreviates: Table 10, M4/Gqi5/CHO-K1 cells, decrease of EC80 acetylcholine response.

A word on the IC50: it is the concentration that gives 50% inhibition. In the case of `Fc1ccc(CN2C[C@H]3CC(COc4ccc(-c5cc(F)ccc5Cl)nn4)C[C@H]3C2)cc1` (stereo partly drawn) [Compound 116, (3aR,6aS)-5-[[6-(2-chloro-5-fluoro-phenyl)pyridazin-3-yl]oxymethyl]-2-[(4-fluorophenyl)methyl]-3,3a,4,5,6,6a-hexahydro-1H-cyclopenta[c]pyrrole], the IC50 under setting [1] turned out to be 3.38 µM. Also, the Emin (Table 9) was determined as 6.49%. On to `c1cc(N2CCCCC2)nnc1N[C@H]1C[C@@H]2CN(CC3CCOCC3)C[C@@H]2C1` [Compound 193, (3aR,5s,6aS)-N-[6-(1-piperidyl)pyridazin-3-yl]-2-(tetrahydropyran-4-ylmethyl)-3,3a,4,5,6,6a-hexahydro-1H-cyclopenta[c]pyrrol-5-amine], for which, where the note is “Table 10”, the “Human M4 Emin” value is given as 3%. The IC50 under setting [2] was determined as 0.0008 µM.

Consider `Cc1nn(C)cc1-c1ccc(O[C@@H]2C[C@@H]3CN(CCC(C)(C)C)C[C@@H]3C2)nn1` [Compound 48, (3aR,5r,6aS)-2-(3,3-dimethylbutyl)-5-[6-(1,3-dimethylpyrazol-4-yl)pyridazin-3-yl]oxy-3,3a,4,5,6,6a-hexahydro-1H-cyclopenta[c]pyrrole], for which the IC50 under setting [1] was found to be 0.361 µM. For the same compound, the Emin (Table 9) came to 3.79%. For the compound `Cc1noc(C)c1-c1ccc(N[C@H]2C[C@@H]3CN(CC4CCOCC4)C[C@@H]3C2)nn1` [Compound 210, (3aR,5s,6aS)-N-[6-(3,5-dimethylisoxazol-4-yl)pyridazin-3-yl]-2-(tetrahydropyran-4-ylmethyl)-3,3a,4,5,6,6a-hexahydro-1H-cyclopenta[c]pyrrol-5-amine], the “Human M4 Emin” value (Table 10) is on record as 26%. In addition, under setting [2], the IC50 came out at 0.0549 µM. On to `CC(C)(C)CCN1C[C@H]2C[C@H](CNc3ccc(-c4cc(F)ccc4Cl)nn3)C[C@H]2C1` [Compound 70, N-[[(3aR,5s,6aS)-2-(3,3-dimethylbutyl)-3,3a,4,5,6,6a-hexahydro-1H-cyclopenta[c]pyrrol-5-yl]methyl]-6-(2-chloro-5-fluoro-phenyl)pyridazin-3-amine], for which the IC50 under setting [1] was 0.0192 µM. Moreover, the Emin (Table 9) came out at 2.64%. As to `CCC(C)CN1C[C@H]2C[C@H](Nc3ccc(-c4cn(C)nc4C)nn3)C[C@H]2C1` (stereo partly shown) [compound 13], under setting [1], the IC50 was 0.0007 µM.

As to `Fc1ccc(Cl)c(-c2ccc(N[C@H]3C[C@@H]4CN(Cc5cn6ccccc6n5)C[C@@H]4C3)nn2)c1` [Compound 165, (3aR,5s,6aS)-N-[6-(2-chloro-5-fluoro-phenyl)pyridazin-3-yl]-2-(imidazo[1,2-a]pyridin-2-ylmethyl)-3,3a,4,5,6,6a-hexahydro-1H-cyclopenta[c]pyrrol-5-amine], the “Human M4 Emin” value (Table 10) is reported as 3%. In addition, under setting [2], the IC50 is 0.0689 µM. On to `Fc1ccc(Cl)c(-c2ccc(N[C@H]3C[C@@H]4CN(Cc5ccncc5)C[C@@H]4C3)nn2)c1` [Compound 162, (3aR,5s,6aS)-N-[6-(2-chloro-5-fluoro-phenyl)pyridazin-3-yl]-2-(4-pyridylmethyl)-3,3a,4,5,6,6a-hexahydro-1H-cyclopenta[c]pyrrol-5-amine], for which the “Human M4 Emin” value (Table 10) amounted to 3%. Under setting [2], the IC50 stood at 0.00452 µM. In the case of `Fc1ccc(Cl)c(-c2ccc(O[C@@H]3C[C@@H]4CN(CC5CCOCC5)C[C@@H]4C3)nn2)c1` [Compound 59, (3aR,5r,6aS)-5-[6-(2-chloro-5-fluoro-phenyl)pyridazin-3-yl]oxy-2-(tetrahydropyran-4-ylmethyl)-3,3a,4,5,6,6a-hexahydro-1H-cyclopenta[c]pyrrole], where the note is “Table 9”, the Emin is reported as 20.7%. Further, under “Table 9, μM”, the IC50 is more than 10 µM. `COc1ccc(CN2C[C@H]3C[C@H](Nc4ccc(-c5cc(F)ccc5Cl)nn4)C[C@H]3C2)cc1` [Compound 168, (3aR,5s,6aS)-N-[6-(2-chloro-5-fluoro-phenyl)pyridazin-3-yl]-2-[(4-methoxyphenyl)methyl]-3,3a,4,5,6,6a-hexahydro-1H-cyclopenta[c]pyrrol-5-amine]: under “Table 10”, the “Human M4 Emin” value is 2%. In addition, the IC50 under setting [2] turned out to be 0.0115 µM. On to `Cc1nn(C)cc1-c1ccc(N[C@H]2C[C@@H]3CN(CC(C)C(C)(C)C)C[C@@H]3C2)nn1` (stereo partly drawn) [Compound 4, (3aR,5s,6aS)-N-[6-(1,3-dimethylpyrazol-4-yl)pyridazin-3-yl]-2-(2,3,3-trimethylbutyl)-3,3a,4,5,6,6a-hexahydro-1H-cyclopenta[c]pyrrol-5-amine], for which, under setting [1], the IC50 is 0.002 µM. The Emin (Table 9) is 2.81%.

`Cc1nn(C)cc1-c1ccc(N[C@H]2C[C@@H]3CN(CCC(C)(C)C)C[C@@H]3C2)nc1` [Compound 149, (3aR,5s,6aS)-2-(3,3-dimethylbutyl)-N-[5-(1,3-dimethylpyrazol-4-yl)-2-pyridyl]-3,3a,4,5,6,6a-hexahydro-1H-cyclopenta[c]pyrrol-5-amine]: the “Human M4 Emin” value (Table 10) is given as 4%. For the same compound, the IC50 under setting [2] came to 0.127 µM. In the case of `Cc1cnn(C)c1-c1ccc(OCC2C[C@@H]3CN(CC4CC5C=CC4C5)C[C@@H]3C2)nn1` (stereo partly drawn) [Compound 80, (3aR,6aS)-2-(5-bicyclo[2.2.1]hept-2-enylmethyl)-5-[[6-(2,4-dimethylpyrazol-3-yl)pyridazin-3-yl]oxymethyl]-3,3a,4,5,6,6a-hexahydro-1H-cyclopenta[c]pyrrole], the IC50 under setting [1] was 0.0734 µM. The Emin (Table 9) worked out at 4.07%. `Cc1ccc(F)cc1-c1ccc(N[C@H]2C[C@@H]3CN(CC4CCOCC4)C[C@@H]3C2)nn1` [Compound 214, (3aR,5s,6aS)-N-[6-(5-fluoro-2-methyl-phenyl)pyridazin-3-yl]-2-(tetrahydropyran-4-ylmethyl)-3,3a,4,5,6,6a-hexahydro-1H-cyclopenta[c]pyrrol-5-amine]: under “Table 10”, the “Human M4 Emin” value came to 4%. Besides, the IC50 under setting [2] amounted to 0.000293 µM.

Take `Fc1ccc(Cl)c(-c2ccc(O[C@@H]3C[C@@H]4CN(CC5CCCOC5)C[C@@H]4C3)nn2)c1` (stereo partly drawn) [Compound 57, (3aR,5r,6aS)-5-[6-(2-chloro-5-fluoro-phenyl)pyridazin-3-yl]oxy-2-(tetrahydropyran-3-ylmethyl)-3,3a,4,5,6,6a-hexahydro-1H-cyclopenta[c]pyrrole]: under setting [1], the IC50 was 3.07 µM. The Emin (Table 9) is 6.99%.

With `Fc1cccc(-c2ccc(N[C@H]3C[C@@H]4CN(CC5CCOCC5)C[C@@H]4C3)nn2)c1Cl` [Compound 202, (3aR,5s,6aS)-N-[6-(2-chloro-3-fluoro-phenyl)pyridazin-3-yl]-2-(tetrahydropyran-4-ylmethyl)-3,3a,4,5,6,6a-hexahydro-1H-cyclopenta[c]pyrrol-5-amine], the “Human M4 Emin” value (Table 10) is 5%. For the same compound, the concentration for half-maximal inhibition (IC50) under setting [2] worked out at 0.000517 µM.

Take `CCCC(C)CN1C[C@H]2C[C@H](Nc3ccc(-c4cc(F)ccc4Cl)nn3)C[C@H]2C1` (stereo partly drawn) [Compound 30, (3aR,5s,6aS)-N-[6-(2-chloro-5-fluoro-phenyl)pyridazin-3-yl]-2-(2-methylpentyl)-3,3a,4,5,6,6a-hexahydro-1H-cyclopenta[c]pyrrol-5-amine]: under setting [1], the IC50 is 0.01 µM. The Emin (Table 9) worked out at 2.88%.

Regarding `Fc1cnc(Cl)c(-c2ccc(N[C@H]3C[C@@H]4CN(CC5CCOCC5)C[C@@H]4C3)nn2)c1` [Compound 220, (3aR,5s,6aS)-N-[6-(2-chloro-5-fluoro-3-pyridyl)pyridazin-3-yl]-2-(tetrahydropyran-4-ylmethyl)-3,3a,4,5,6,6a-hexahydro-1H-cyclopenta[c]pyrrol-5-amine], for the setting “Table 10”, the “Human M4 Emin” value was 4%. For the same compound, the IC50 under setting [2] came out at 0.000399 µM.

Turning to `Cc1nn(C)cc1-c1ccc(O[C@@H]2C[C@@H]3CN(CC4CCCOC4)C[C@@H]3C2)nn1` (stereo partly drawn) [Compound 51, (3aR,5r,6aS)-5-[6-(1,3-dimethylpyrazol-4-yl)pyridazin-3-yl]oxy-2-(tetrahydropyran-3-ylmethyl)-3,3a,4,5,6,6a-hexahydro-1H-cyclopenta[c]pyrrole], under setting [1], the IC50 amounted to 7.85 µM. In addition, where the note is “Table 9”, the Emin is 19.8%.
